Type in all cases: biochemical
Test [1] has as its target T1, PDE3 from human platelets (Homo sapiens, UniProt Q14432).
T1 construct: PDE3 and PDE5 from human platelets; tissue MDS Pharma Services; host or cells: human platelets
Description: PDE3 enzyme assay (PDE selectivity). To be noted: read-out: PDE3 (% inhibit at 10 μM). On the procedure: (§1) The phosphodiesterase selectivity of 2,5-Diamino-4-(4-chloro-phenyl)-thieno[2,3-d]pyrimidine-6-carboxylic acid amide was assessed by testing against bovine PDE1, human PDE2, PDE3 and PDE5 from human platelets and PDE6 from bovine retinal rod outer segments (MDS Pharma Services).

A further test concerns the target T2, human PDE2 (Homo sapiens, UniProt O00408).
T2 construct: MDS Pharma Services
Description: PDE2 enzyme assay (PDE selectivity). Particulars: read-out: PDE2 (% inhibit at 10 μM). The procedure:
as §1

Test [2] addresses T3, PDE5 from human platelets (Homo sapiens, UniProt O76074).
T3 construct: PDE3 and PDE5 from human platelets; tissue MDS Pharma Services; host or cells: human platelets
Kind of test: PDE5 enzyme assay (PDE selectivity). Particulars: read-out: PDE5 (% inhibit at 10 μM). The procedure:
as §1

Test [3] has as its target T4, PDE6 from bovine retinal rod outer segments (Bos taurus, UniProt P11541+P23439).
T4 construct: PDE6 from bovine retinal rod outer segments; tissue MDS Pharma Services; host or cells: bovine retinal rod outer segments
T4 sequence (P11541 2-856 limits assumed): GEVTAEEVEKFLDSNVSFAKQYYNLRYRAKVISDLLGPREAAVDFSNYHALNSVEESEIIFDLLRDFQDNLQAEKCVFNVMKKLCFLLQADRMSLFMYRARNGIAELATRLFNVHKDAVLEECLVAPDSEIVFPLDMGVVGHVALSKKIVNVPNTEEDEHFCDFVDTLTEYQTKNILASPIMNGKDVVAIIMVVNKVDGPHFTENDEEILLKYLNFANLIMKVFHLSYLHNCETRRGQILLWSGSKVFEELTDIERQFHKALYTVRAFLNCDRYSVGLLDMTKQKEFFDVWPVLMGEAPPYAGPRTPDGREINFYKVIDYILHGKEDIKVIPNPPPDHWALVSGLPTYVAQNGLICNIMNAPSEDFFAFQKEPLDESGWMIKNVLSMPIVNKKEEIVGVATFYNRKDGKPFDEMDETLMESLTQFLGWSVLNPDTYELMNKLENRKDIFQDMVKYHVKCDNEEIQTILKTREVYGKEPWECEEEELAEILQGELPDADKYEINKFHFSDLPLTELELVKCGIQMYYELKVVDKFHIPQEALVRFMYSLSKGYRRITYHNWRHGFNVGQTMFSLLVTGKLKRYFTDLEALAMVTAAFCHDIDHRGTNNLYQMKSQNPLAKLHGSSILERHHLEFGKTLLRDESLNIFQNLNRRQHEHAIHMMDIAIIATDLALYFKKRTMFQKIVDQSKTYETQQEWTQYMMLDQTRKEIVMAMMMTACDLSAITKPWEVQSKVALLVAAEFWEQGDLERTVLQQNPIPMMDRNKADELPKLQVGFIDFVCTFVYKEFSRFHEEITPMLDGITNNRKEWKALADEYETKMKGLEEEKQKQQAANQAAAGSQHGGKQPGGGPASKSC
T4 sequence (P23439 2-850 limits assumed): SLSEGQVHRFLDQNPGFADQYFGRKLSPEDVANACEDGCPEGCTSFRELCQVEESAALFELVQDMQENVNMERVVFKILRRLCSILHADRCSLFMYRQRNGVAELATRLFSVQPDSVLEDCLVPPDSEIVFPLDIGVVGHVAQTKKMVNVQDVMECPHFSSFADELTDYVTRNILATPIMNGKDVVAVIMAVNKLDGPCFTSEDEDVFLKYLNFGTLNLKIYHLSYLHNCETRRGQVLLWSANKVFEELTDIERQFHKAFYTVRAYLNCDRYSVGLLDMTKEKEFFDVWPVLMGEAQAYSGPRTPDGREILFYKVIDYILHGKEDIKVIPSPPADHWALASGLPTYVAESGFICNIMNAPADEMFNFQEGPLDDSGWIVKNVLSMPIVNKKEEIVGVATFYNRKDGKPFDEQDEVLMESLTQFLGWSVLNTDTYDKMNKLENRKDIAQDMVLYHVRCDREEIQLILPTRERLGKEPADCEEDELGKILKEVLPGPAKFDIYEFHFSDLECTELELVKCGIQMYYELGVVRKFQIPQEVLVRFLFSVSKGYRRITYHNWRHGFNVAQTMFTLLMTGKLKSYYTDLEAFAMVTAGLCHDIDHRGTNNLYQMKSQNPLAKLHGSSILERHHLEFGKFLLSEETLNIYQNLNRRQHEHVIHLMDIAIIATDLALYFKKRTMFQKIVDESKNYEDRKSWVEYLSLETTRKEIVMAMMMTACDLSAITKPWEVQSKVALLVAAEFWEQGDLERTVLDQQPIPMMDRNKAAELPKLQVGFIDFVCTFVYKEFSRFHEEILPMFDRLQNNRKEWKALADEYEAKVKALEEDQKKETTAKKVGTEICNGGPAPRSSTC
Description: PDE6 enzyme assay (PDE selectivity). To be noted: read-out: PDE6 (% inhibit at 10 μM). On the procedure: as §1

The subject of test [4] is PDE4 enzyme purified from U937 human monocytic cells. Kind of test: PDE4 (U937 cell-derived) enzyme assay. On the procedure: PDE4 enzyme is purified from U937 human monocytic cells by gel filtration chromatography as previously described (Muller et al. Bioorg. & Med Chem Lett 8:2669-2674 (1998)). Phosphodiesterase reactions are carried out in 50 mM Tris HCl pH 7.5, 5 mM MgCl2, 1 μM cAMP, 10 nM [^3H]-cAMP for 30 minutes at 30° C., terminated by boiling, treated with 1 mg/ml snake venom and separated using AG-1XS ion exchange resin (BioRad) as described (Id). Reactions consumed less than 15% of available substrate.

The test system of another test is bovine PDE1. Description: PDE1 enzyme assay (PDE selectivity). The procedure: as §1

The results in this text go back to patent US20080004271A1, “Inhibitors of TNFalpha, PDE4 and B-RAF, compositions thereof and methods of use therewith” (priority 2006, published 2008).

Usually IC50 stands for the concentration needed to halve the response being measured. High values mean weaker potency, low ones greater potency.

T2 sequence (O00408 whole entry): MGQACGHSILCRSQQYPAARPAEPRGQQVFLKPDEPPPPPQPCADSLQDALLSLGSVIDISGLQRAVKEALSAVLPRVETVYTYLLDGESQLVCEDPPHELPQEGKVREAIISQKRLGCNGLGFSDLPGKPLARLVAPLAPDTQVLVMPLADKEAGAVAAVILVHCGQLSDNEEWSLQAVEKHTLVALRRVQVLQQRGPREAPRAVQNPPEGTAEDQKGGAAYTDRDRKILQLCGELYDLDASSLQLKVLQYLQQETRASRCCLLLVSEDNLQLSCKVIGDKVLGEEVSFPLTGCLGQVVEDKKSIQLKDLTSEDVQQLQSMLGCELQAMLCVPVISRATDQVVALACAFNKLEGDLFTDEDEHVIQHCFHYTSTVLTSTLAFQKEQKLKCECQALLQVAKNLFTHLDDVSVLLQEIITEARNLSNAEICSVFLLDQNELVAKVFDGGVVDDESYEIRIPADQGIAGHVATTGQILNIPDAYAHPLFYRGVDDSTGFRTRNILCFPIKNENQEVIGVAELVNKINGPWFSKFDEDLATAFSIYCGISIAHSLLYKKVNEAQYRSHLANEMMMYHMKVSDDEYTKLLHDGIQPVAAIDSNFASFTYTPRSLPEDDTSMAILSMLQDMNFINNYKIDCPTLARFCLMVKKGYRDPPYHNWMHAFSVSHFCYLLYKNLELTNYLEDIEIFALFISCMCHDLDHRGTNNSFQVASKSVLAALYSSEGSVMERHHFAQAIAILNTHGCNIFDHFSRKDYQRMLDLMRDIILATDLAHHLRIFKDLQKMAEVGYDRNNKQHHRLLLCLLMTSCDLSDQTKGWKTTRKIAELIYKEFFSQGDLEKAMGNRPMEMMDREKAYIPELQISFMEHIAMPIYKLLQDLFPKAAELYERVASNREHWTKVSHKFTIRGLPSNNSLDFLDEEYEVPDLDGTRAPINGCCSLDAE
T1 sequence (Q14432 whole entry): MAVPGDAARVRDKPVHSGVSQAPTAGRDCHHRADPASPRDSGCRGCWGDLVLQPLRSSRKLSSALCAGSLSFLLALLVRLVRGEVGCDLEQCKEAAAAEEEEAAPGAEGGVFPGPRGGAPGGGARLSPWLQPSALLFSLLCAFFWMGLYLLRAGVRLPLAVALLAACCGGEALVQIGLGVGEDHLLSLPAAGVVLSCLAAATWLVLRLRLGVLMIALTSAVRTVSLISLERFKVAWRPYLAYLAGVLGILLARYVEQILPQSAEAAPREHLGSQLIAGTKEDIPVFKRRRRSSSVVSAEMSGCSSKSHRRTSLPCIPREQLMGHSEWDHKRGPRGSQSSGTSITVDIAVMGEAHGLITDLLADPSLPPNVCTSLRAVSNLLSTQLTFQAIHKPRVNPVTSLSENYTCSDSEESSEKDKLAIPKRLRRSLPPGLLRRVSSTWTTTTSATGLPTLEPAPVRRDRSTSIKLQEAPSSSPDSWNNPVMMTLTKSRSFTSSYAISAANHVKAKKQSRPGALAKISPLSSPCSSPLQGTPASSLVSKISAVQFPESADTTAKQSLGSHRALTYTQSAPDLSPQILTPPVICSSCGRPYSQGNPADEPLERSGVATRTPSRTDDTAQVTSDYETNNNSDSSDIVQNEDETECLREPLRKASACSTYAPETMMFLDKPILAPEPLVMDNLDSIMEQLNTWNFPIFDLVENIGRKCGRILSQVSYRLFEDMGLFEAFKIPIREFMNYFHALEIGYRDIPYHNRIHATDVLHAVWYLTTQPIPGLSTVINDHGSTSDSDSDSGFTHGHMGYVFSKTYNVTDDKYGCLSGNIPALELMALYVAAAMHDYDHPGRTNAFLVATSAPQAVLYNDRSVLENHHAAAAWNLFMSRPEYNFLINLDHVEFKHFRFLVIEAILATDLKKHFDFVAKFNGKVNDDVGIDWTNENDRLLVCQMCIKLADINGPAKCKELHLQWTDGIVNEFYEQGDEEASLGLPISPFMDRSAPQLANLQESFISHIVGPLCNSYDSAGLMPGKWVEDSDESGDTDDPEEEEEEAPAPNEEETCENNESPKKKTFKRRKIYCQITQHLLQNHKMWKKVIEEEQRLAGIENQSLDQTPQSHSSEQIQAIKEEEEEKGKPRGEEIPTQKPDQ

For the molecule `NC(=O)c1sc2nc(N)nc(-c3ccc(Cl)cc3)c2c1N` [2,5-Diamino-4-(4-chloro-phenyl)-thieno[2,3-d]pyrimidine-6-carboxylic acid amide], the inhibition at 10 µM was 14% in test [1], 8% on human PDE2, -2% in test [2] and 8% in test [3]. Further, inhibition in test [4] was half-maximal at 120 nM (IC50). Moreover, the “PDE1 (% inhibit at 10 μM)” value in the test on bovine PDE1 turned out to be 18%.
